# In publication PMC5054527, “Mechanism of high affinity inhibition of the human urate transporter URAT1” (Scientific Reports, 2016):
# Numbering of substitutions follows the chain as printed. Where two headings read alike, the source gives them in different places.
# Experiments:
# Assay in all cases: URAT1 uric acid transport activity assay
# Format in all cases: cell-based
# [1] = target: T1, r-A21T rURAT1 point mutant (Rattus norvegicus, UniProt Q3ZAV1, A21T)
# T1 construct: expressed in transfected cells; host or cells: HEK-293T
# T1 sequence (Q3ZAV1 1-553 A21T): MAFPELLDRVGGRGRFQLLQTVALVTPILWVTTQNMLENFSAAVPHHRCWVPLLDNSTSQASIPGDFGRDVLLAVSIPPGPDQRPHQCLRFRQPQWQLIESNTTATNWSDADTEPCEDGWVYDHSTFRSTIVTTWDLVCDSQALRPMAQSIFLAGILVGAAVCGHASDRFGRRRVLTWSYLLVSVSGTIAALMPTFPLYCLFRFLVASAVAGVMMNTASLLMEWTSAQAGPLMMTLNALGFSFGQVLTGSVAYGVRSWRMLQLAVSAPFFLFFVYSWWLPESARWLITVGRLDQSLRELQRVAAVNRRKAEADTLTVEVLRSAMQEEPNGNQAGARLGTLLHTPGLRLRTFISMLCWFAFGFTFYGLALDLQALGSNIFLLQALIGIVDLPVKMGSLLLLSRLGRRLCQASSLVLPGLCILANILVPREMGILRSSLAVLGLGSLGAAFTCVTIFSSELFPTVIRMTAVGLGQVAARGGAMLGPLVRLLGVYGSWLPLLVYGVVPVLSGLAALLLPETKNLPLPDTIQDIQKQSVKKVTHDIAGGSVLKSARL
# Summary of the method: (§1)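 Readout: 14C-uric acid uptake (100 μM, 10 min) in cells transiently transfected one day earlier with mutant rURAT1. Serially diluted inhibitors were added 5 min before substrate. Triplicate points, four-parameter logistic fit for IC50.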
# [2] = target: T2, r-F351C rURAT1 point mutant (Rattus norvegicus, UniProt Q3ZAV1, F351C)
# T2 sequence (Q3ZAV1 1-553 F351C): T1 sequence (Q3ZAV1 1-553 A21T) with T21A, F351C
# Summary of the method: as §1
# [3] = target: T3, r-V25M rURAT1 point mutant (Rattus norvegicus, UniProt Q3ZAV1, V25M)
# T3 construct: expressed in transfected cells; host or cells: HEK-293T
# T3 sequence (Q3ZAV1 1-553 V25M): T1 sequence (Q3ZAV1 1-553 A21T) with T21A, V25M
# Summary of the method: as §1
smiles,measurement,setting,value
CCc1oc2ccccc2c1C(=O)c1cc(Br)c(O)c(Br)c1 [benzbromarone],IC50,[1],22 ± 3.6 µM
same,IC50,[2],24 ± 3.3 µM
same,IC50,[3],11 ± 2.7 µM
"O=C(O)CSc1nnc(Br)n1-c1ccc(C2CC2)c2ccccc12 [lesinurad, 2-((5-bromo-4-(4-cyclopropylnaphthalen-1-yl)-4H-1,2,4-triazol-3-yl)thio)acetic acid]",IC50,"[1]; r-A21T, MES pH 5.5, 100 μM 14C-uric acid, read-out: IC50 (uric acid transport)",71 ± 5.9 µM
same,IC50,"[2]; r-F351C, MES pH 5.5, 100 μM 14C-uric acid, read-out: IC50 (uric acid transport)",82 ± 1.7 µM
same,IC50,"[3]; r-V25M, MES pH 5.5, 100 μM 14C-uric acid, read-out: IC50 (uric acid transport)",59 ± 17 µM
O=C1C(CC[S+]([O-])c2ccccc2)C(=O)N(c2ccccc2)N1c1ccccc1 (stereo not shown) [sulfinpyrazone],IC50,"[1]; r-A21T, HEPES pH 7.3, 100 μM 14C-uric acid, read-out: IC50 (uric acid transport)",471 ± 81 µM
same,IC50,"[2]; r-F351C, HEPES pH 7.3, 100 μM 14C-uric acid, read-out: IC50 (uric acid transport)",924 ± 276 µM
same,fold increased affinity of r-V25M compared to rURAT1,[3]; from IC50 values,49 fold
same,IC50,"[3]; r-V25M, HEPES pH 7.3, 100 μM 14C-uric acid, read-out: IC50 (uric acid transport)",14 ± 2.3 µM
